Measured values taken from patent US20260138959A1, “QUINAZOLINE DERIVATIVE COMPOUND AND USE THEREOF” (VORONOI INC., priority 2021, published 2026).

Tests used:
human PDGFR-α(wt) = target: T1, human PDGFR-α(wt) (Homo sapiens, UniProt P16234); experiment: Enzyme inhibitory activity, ADP-Glo kinase assay, PDGFR-α(wt); assay type: biochemical; conditions: read-out: PDGFR-α (IC50 class)
T1 construct: purchased Signalchem P12-18G
Description: (§1) In order to evaluate the inhibitory activity of the compounds synthesized according to the above examples on PDGFR-α(wt), PDGFR-β(wt), c-KIT(wt), and c-KIT(D816V) kinases, the following method was performed. The compounds of examples were reacted with purified human PDGFR-α(wt) (Signalchem #P12-18G) enzyme, human PDGFR-β(wt) (Signalchem #P13-11G) enzyme, human c-KIT(wt) (Signalchem #K06-11BG) enzyme, human c-KIT(D816V) (Signalchem #C06-12LG) enzyme, and the enzyme inhibitory abilities were evaluated by the following method.
(§2) The reaction buffer was used as a composition of 40 mM Tris-HCl pH7.4, 20 mM MgCl2, 0.5 mg/ml BSA, 50 μM DTT, and the reactions of all the tests were carried out on the reaction buffer. The compound was diluted in 12 steps using a serial dilution method from a 10 mM DMSO stock, and the enzyme activity was measured at a final compound concentration of 10˜0.00005645 μM. During the test, the enzyme activity was confirmed using in vitro ADP-Glo™ kinase assay (Promega) after reacting with the proper concentration of human PDGFR-α(wt) enzyme, human PDGFR-β(wt), human c-KIT(wt) enzyme, and human c-KIT(D816V) enzyme with purified ATP and enzyme substrate at 25° C. for 1˜2 hours. At a ratio of 2:2:1, an enzyme-active reaction solution, an ADP-Glo reaction solution, and an enzyme-active detection solution were reacted to measure the inhibition of the enzyme's activity with luminoscence. Based on the […] of the enzyme activity of the solvent control that was not treated with the compound, the degree of enzyme activity inhibition was calculated according to the treatment concentration of each compound, and the concentration of each compound that inhibits 50% of enzyme activity was determined as IC50 (nM) value and the value was obtained by using GraphPad Prism 8.3.0 (GraphPad software Inc., San Diego) software. (A: IC50≤50 nM; B: 50 nM<IC50≤100 nM; C: 100 nM<IC50≤500 nM; D: IC50>500 nM).

human PDGFR-β(wt) = target: T2, human PDGFR-β(wt) (Homo sapiens, UniProt P09619); experiment: Enzyme inhibitory activity, ADP-Glo kinase assay, PDGFR-β(wt); assay type: biochemical; conditions: read-out: PDGFR-β (IC50 class)
T2 construct: purchased Signalchem P13-11G
Description: as §1, §2

Ba/F3-TEL-PDGFRα(WT) = experiment: Proliferation inhibitory activity on Ba/F3 cell (CellTiter-Glo, 72 hours), PDGFR-α; assay type: cell-based; conditions: Mus musculus, BaF3, read-out: Ba/F3 (nM) Tel-PDGFRα (GI50 class)
Description: (§3) Ba/F3-TEL-PDGFRα(WT), Ba/F3-TEL-PDGFβ(WT), Ba/F3-c-KIT(D816V) (Kyinno, #KC-0138), c-KIT V560G/D816V, c-KIT D814Y were seeded at 3×10^3/100 μl/well in a clear bottom white 96-well plate. A culture solution containing compounds of 12 concentrations (0.00001-2 mM) serially diluted in 3 folds and the DMSO control group was added at 0.5 μl/well each to a final concentration of 0.00005-10 μM, and then incubated in a CO2 incubator at 37° C. for 72 hours. After 72 hours, the plate treated with the compound was taken out, CellTiter-Glo® Assay (Promega) solution was treated with 100 μl/well, followed by mixing well. After mixing well for about 10 minutes at room temperature, […] was measured using a microplate reader. The data were presented as percentages in proportion to treated cells based on the vehicle, GI50 (nM) values were calculated using GraphPad Prism 8.3.0 (GraphPad software Inc., San Diego).
(§4) The inhibitory activities of Ba/F3 expressing PDGFR-α, PDGFR-β, c-KIT(D816V), c-KIT V560G/D816V, and c-KIT D814Y measured as described above were measured and shown in Table 7 below (A: GI50≤200 nM; B: 200 nM<GI50≤500 nM; C: GI50>500 nM).

Ba/F3-TEL-PDGFβ(WT) = experiment: Proliferation inhibitory activity on Ba/F3 cell (CellTiter-Glo, 72 hours), PDGFR-β; assay type: cell-based; conditions: Mus musculus, BaF3, read-out: Ba/F3 (nM) Tel-PDGFRβ (GI50 class)
Description: as §3, §4

c-KIT V560G/D816V = experiment: Proliferation inhibitory activity on Ba/F3 cell (CellTiter-Glo, 72 hours), c-KIT V560G/D816V; assay type: cell-based; conditions: Mus musculus, BaF3, c-KIT V560G/D816V cells, read-out: Cell (nM) c-KIT V560G/D816V (GI50 class)
Outline: (§5)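 Viability was read by CellTiter-Glo after 72 h compound exposure at 37 °C, and GI50 values (nM) were derived from percent of vehicle-treated growth. Ba/F3 cells transformed with TEL-PDGFRα/β or mutant c-KIT were plated at 3×10^3 per well. Final compound range was 0.00005-10 μM in 12 threefold steps.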

Ba/F3-c-KIT(D816V) = experiment: Proliferation inhibitory activity on Ba/F3 cell (CellTiter-Glo, 72 hours), c-KIT(D816V); assay type: cell-based; conditions: Mus musculus, BaF3, read-out: Ba/F3 (nM) c-KIT (D816V) (GI50 class)
Outline: as §5

T1 sequence (P16234 24-1089): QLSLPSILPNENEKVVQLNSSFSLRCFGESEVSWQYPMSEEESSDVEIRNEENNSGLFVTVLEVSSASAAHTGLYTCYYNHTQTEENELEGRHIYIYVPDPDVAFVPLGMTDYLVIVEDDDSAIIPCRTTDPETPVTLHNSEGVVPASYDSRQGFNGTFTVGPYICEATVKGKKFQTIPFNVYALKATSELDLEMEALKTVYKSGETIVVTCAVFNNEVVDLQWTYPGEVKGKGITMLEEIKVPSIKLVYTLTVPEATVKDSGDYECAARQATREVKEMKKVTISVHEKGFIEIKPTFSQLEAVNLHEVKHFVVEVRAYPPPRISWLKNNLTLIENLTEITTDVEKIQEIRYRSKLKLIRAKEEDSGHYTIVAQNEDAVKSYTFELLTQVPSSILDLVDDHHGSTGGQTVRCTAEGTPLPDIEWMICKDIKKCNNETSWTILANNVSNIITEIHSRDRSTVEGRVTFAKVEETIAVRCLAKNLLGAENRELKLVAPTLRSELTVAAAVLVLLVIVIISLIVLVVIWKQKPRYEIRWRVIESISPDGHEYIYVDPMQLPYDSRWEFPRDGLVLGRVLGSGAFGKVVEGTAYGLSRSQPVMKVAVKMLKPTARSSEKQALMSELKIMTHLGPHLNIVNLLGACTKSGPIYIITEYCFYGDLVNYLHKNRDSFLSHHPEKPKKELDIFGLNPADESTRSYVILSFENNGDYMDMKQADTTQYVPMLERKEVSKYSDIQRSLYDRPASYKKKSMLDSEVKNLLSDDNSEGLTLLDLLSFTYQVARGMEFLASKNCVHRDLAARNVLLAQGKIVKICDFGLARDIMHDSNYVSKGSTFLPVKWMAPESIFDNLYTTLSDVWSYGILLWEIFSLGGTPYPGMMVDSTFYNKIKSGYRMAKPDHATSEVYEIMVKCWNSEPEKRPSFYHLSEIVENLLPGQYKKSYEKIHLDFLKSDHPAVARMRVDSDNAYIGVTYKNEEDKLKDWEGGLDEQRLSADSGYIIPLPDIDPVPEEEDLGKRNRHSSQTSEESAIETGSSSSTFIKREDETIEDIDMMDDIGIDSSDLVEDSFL
T2 sequence (P09619 33-1106): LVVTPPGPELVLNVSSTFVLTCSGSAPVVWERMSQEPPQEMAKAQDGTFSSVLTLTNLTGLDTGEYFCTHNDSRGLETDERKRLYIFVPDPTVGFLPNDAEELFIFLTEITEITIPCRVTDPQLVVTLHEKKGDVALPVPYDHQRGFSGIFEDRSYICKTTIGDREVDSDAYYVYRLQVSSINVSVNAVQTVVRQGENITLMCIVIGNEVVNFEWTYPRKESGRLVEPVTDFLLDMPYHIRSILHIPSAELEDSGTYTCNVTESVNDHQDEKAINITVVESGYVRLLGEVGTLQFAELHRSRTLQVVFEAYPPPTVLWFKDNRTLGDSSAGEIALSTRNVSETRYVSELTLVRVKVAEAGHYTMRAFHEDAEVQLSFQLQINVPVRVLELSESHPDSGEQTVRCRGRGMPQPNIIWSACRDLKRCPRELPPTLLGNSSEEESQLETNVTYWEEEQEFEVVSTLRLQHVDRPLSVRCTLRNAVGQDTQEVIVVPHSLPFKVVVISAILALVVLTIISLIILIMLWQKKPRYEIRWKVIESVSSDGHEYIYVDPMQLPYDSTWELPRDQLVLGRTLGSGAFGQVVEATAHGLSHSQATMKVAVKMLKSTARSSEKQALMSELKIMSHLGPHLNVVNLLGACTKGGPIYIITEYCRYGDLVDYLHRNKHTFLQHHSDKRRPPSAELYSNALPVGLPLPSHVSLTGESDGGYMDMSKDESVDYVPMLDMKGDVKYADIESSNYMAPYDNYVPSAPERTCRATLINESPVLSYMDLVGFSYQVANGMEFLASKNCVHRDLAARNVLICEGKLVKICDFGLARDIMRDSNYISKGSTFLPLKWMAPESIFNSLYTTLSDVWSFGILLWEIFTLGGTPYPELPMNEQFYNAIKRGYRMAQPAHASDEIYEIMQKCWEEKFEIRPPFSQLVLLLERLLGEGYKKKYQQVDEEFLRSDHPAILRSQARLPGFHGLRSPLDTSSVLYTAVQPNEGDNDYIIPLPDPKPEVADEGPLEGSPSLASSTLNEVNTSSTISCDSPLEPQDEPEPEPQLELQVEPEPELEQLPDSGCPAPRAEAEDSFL

Compound | IC50 (human PDGFR-α(wt)) [µM] | IC50 (human PDGFR-β(wt)) [µM] | GI50 (Ba/F3-TEL-PDGFRα(WT)) [nM] | GI50 (Ba/F3-TEL-PDGFβ(WT)) [nM] | GI50 (c-KIT V560G/D816V) [nM] | GI50 (Ba/F3-c-KIT(D816V)) [nM]
COCCN1CCC(COc2cc3ncnc(-c4ccc(NC(=O)C(C)(C)c5ccc(F)cc5)cc4)c3cc2OC)CC1 [Example 89, 2-(4-fluorophenyl)-N-(4-(6-methoxy-7-((1-(2-methoxyethyl)piperidin-4-yl)methoxy)quinazolin-4-yl)phenyl)-2-methylpropanamide] | ≤ 0.05 | ≤ 0.05 | ≤ 200 | ≤ 200 | ≤ 200 | 
COc1cc2c(-c3ccc(NC(=O)Cc4ccc(C(F)(F)F)cc4)cc3)ncnc2cc1OCCCN1CCN(C2CC2)CC1 [Example 142, N-(4-(7-(3-(4-cyclopropylpiperazin-1-yl)propoxy)-6-methoxyquinazolin-4-yl)phenyl)-2-(4-(trifluoromethyl)phenyl)acetamide] |  | ≤ 0.05 |  | ≤ 200 | ≤ 200 | ≤ 200
COc1cc2ncnc(-c3ccc(NC(=O)Cc4ccc(F)cc4)cc3)c2cc1O [Example 124, 2-(4-fluorophenyl)-N-(4-(6-hydroxy-7-methoxyquinazolin-4-yl)phenyl)acetamide] | ≤ 0.05 | 0.1 to 0.5 | ≤ 200 | ≤ 200 |  | 
CCN1CCC(COc2cc3ncnc(-c4ccc(NC(=O)C(C)(C)c5ccc(F)cc5)cc4)c3cc2OC)CC1 [Example 90, N-(4-(7-((1-ethylpiperidin-4-yl)methoxy)-6-methoxyquinazolin-4-yl)phenyl)-2-(4-fluorophenyl)-2-methylpropanamide] | ≤ 0.05 | ≤ 0.05 | ≤ 200 | ≤ 200 | ≤ 200 | 
COCCN1CCC(COc2cc3ncnc(-c4ccc(NC(=O)Cc5ccc(Cl)nc5)cc4)c3cc2OC)CC1 [Example 113, 2-(6-chloropyridin-3-yl)-N-(4-(6-methoxy-7-((1-(2-methoxyethyl)piperidin-4-yl)methoxy)quinazolin-4-yl)phenyl)acetamide] |  | ≤ 0.05 |  | ≤ 200 | ≤ 200 | 
COc1cc2ncnc(-c3ccc(NC(=O)Cc4ccc(C(F)(F)F)cc4)cc3)c2cc1OCCCN1C[C@@H]2C[C@H]1CN2C [Example 158, N-(4-(7-methoxy-6-(3-((1S,4S)-5-methyl-2,5-diazabicyclo[2.2.1]heptane-2-yl)propoxy)quinazolin-4-yl)phenyl)-2-(4-(trifluoromethyl)phenyl)acetamide] |  | ≤ 0.05 |  | ≤ 200 | 200 to 500 | ≤ 200
COc1cc2c(-c3ccc(NC(=O)Cc4ccc(C(F)(F)F)nc4)cc3)ncnc2cc1OCC1CCN(C(C)C)CC1 [Example 121, N-(4-(7-((1-isopropylpiperidin-4-yl)methoxy)-6-methoxyquinazolin-4-yl)phenyl)-2-(6-(trifluoromethyl)pyridin-3-yl)acetamide] |  | ≤ 0.05 |  | ≤ 200 | ≤ 200 | 
CCN1CC2(C1)CN(CCCOc1cc3c(-c4ccc(NC(=O)Cc5ccc(C(F)(F)F)cc5)cc4)ncnc3cc1OC)C2 [Example 149] | ≤ 0.05 | ≤ 0.05 | ≤ 200 | ≤ 200 |  | > 500
CCN1CCCC(COc2cc3ncnc(-c4ccc(NC(=O)Cc5ccc(C(F)(F)F)nc5)cc4)c3cc2OC)C1 (centres unmarked) [Example 110, N-(4-(7-((1-ethylpiperidin-3-yl)methoxy)-6-methoxyquinazolin-4-yl)phenyl)-2-(6-(trifluoromethyl)pyridin-3-yl)acetamide] |  | ≤ 0.05 |  | ≤ 200 | ≤ 200 | 
COc1ccc(CC(=O)Nc2ccc(-c3ncnc4cc(OCC5CCN(C)CC5)c(OC)cc34)cc2)cn1 [Example 100, N-(4-(6-methoxy-7-((1-methylpiperidin-4-yl)methoxy)quinazolin-4-yl)phenyl)-2-(6-methoxypyridin-3-yl)acetamide] |  | ≤ 0.05 |  | ≤ 200 | ≤ 200 | 
CCN1CCC(COc2cc3ncnc(-c4ccc(NC(=O)Cc5ccc6c(c5)OCO6)cc4)c3cc2OC)CC1 [Example 99, 2-(benzo[d][1,3]dioxol-5-yl)-N-(4-(7-((1-ethylpiperidin-4-yl)methoxy)-6-methoxyquinazolin-4-yl)phenyl)acetamide] |  | ≤ 0.05 |  | ≤ 200 | ≤ 200 | 
COc1cc2ncnc(-c3ccc(NC(=O)Cc4ccc(C(F)(F)F)cc4)cc3)c2cc1OCCCN1CCN2CCCC2C1 (centres unmarked) [Example 161, N-(4-(6-(3-(hexahydropyrrolo[1,2-a]pyrazin-2(1H)-yl)propoxy)-7-methoxyquinazolin-4-yl)phenyl)-2-(4-(trifluoromethyl)phenyl)acetamide] |  | ≤ 0.05 |  | ≤ 200 | ≤ 200 | ≤ 200
CCN1CCCC(COc2cc3ncnc(-c4ccc(NC(=O)Cc5ccc(OC)nc5)cc4)c3cc2OC)C1 (centres unmarked) [Example 109, N-(4-(7-((1-ethylpiperidin-3-yl)methoxy)-6-methoxyquinazolin-4-yl)phenyl)-2-(6-methoxypyridin-3-yl)acetamide] |  | ≤ 0.05 |  | ≤ 200 | ≤ 200 | 
COc1ccc(CC(=O)Nc2ccc(-c3ncnc4cc(OCC5CCN(C(C)C)CC5)c(OC)cc34)cc2)cn1 [Example 116, N-(4-(7-((1-isopropylpiperidin-4-yl)methoxy)-6-methoxyquinazolin-4-yl)phenyl)-2-(6-methoxypyridin-3-yl)acetamide] |  | ≤ 0.05 |  | ≤ 200 | ≤ 200 | 
COc1cc2c(-c3ccc(NC(=O)Cc4ccc(C(F)(F)F)cc4)c(F)c3)ncnc2cc1OCCCN1CCN(C)CC1 [Example 50, N-(2-fluoro-4-(6-methoxy-7-(3-(4-methylpiperazin-1-yl)propoxy)quinazolin-4-yl)phenyl)-2-(4-(trifluoromethyl)phenyl)acetamide] |  | ≤ 0.05 |  | ≤ 200 |  | 
COc1cc2c(-c3ccc(C(=O)NCc4ccc(C(F)(F)F)cc4)cc3)ncnc2cc1OCCCN1CCN(C)CC1 [Example 165, 4-(6-methoxy-7-(3-(4-methylpiperazin-1-yl)propoxy)quinazolin-4-yl)-N-(4-(trifluoromethyl)benzyl)benzamide] |  | ≤ 0.05 |  | ≤ 200 |  | 
COCCN1CCC(COc2cc3ncnc(-c4ccc(NC(=O)Cc5ccc6c(c5)OCO6)cc4)c3cc2OC)CC1 [Example 98, 2-(benzo[d][1,3]dioxol-5-yl)-N-(4-(6-methoxy-7-((1-(2-methoxyethyl)piperidin-4-yl)methoxy)quinazolin-4-yl)phenyl)acetamide] |  | ≤ 0.05 |  | ≤ 200 | ≤ 200 | 
COc1cc2c(-c3ccc(NC(=O)Cc4ccc5c(c4)OCO5)cc3)ncnc2cc1OCC1CCNCC1 [Example 97, 2-(benzo[d][1,3]dioxol-5-yl)-N-(4-(6-methoxy-7-(piperidin-4-ylmethoxy)quinazolin-4-yl)phenyl)acetamide] |  | ≤ 0.05 |  | ≤ 200 | > 500 | 
